Results as given in patent US7070983B2, “Mutant Pseudomonas putida strains and methods of use thereof” (priority 2003, dated 2006).

What was measured:
Format in all cases: cell-based, Pseudomonas putida
[1] = system: 4HBA-tolerant Str, Gen and Rif mutants of P. putida KH146-2; conditions: Str mutants and Rif mutants tested; in words
Protocol: (§1) Pseudomonas putida KH146-2 was originally isolated from soil for the capability of growing in the presence of 4-hydroxybenzoate (Chen et al., ((1998) Res Communs Biochem and Cell & Mol Biol 2: 253–274)). HBM medium consists of 50 mM sodium potassium phosphate buffer (pH6.8), 0.1% (NH4)2SO4 and Hutner's base. Hutner's base cotained (per liter) nitrilotriacetic acid, 200 mg; CaCl2.2H2O, 67 mg; (NH4)6Mo7O24.4H2O, 185 μg; MgSO4, 289 mg; EDTA, 2.5 mg; ZnSO4.7H2O, 11 mg; FeSO4.7H2O, 7 mg; MnSO4.H2O, 1.5 mg; CuSO4.5H2O, 390 μg; Co(NO3)2.6H2O, 250 μg, and Na2B4O7.10H2O, 180 μg. LB medium contains 1% tryptone, 0.5% yeast extract, and 1% NaCl (adjusted pH 6.8). LBH medium contains 1% tryptone and 0.5% yeast extract in HBM medium. The bacteria were grown at 30° C. in a shaker at 200 rpm. For tolerance tests, HBM or LBH agar plates containing serially increasing concentrations of an organic chemical were employed. Routinely, 20 to 40 bacterial strains were spot-transplanted with the aid of tooth pick on an agar plate, followed by incubation at 30° C. for 3 days.
Using several strains randomly chosen as representatives of 4HBA-tolerant mutants, we examined the tolerance level to various organic compounds. […] Tolerance levels to other organic compounds were also examined.

[2] = system: P. putida strain no. 9 (Str mutant); assay: Tolerance test (MIC) on agar plates; conditions: LBH medium
Protocol: as §1

[3] = system: P. putida strain no. 15 (Rif mutant); assay: Tolerance test (MIC) on agar plates; conditions: LBH medium
Protocol: as §1

[4] = system: P. putida strain no. 3 (Str mutant); assay: Tolerance test (MIC) on agar plates; conditions: LBH medium
Protocol: as §1

[5] = system: P. putida strain no. 12 (Gen mutant); assay: Tolerance test (MIC) on agar plates; conditions: LBH medium
Protocol: as §1

[6] = system: P. putida strain no. 17 (Rif mutant); assay: Tolerance test (MIC) on agar plates; conditions: LBH medium
Protocol: as §1

[7] = system: P. putida strain no. 14 (Rif mutant); assay: Tolerance test (MIC) on agar plates; conditions: LBH medium
Protocol: as §1

[8] = system: P. putida wild-type KH146-2; conditions: LBH medium, 30° C., 3 days
Protocol: as §1

[9] = system: KH146-2; assay: Organic solvent tolerance, growth in saturated LBH medium
[10] = system: Str and Rif mutants; assay: as above
[11] = LBH medium containing saturated concentrations of m-xylene
[12] = 3% MeOH-LBH medium saturated with toluene

Compound: O=C(O)c1ccccc1I [2-iodobenzoate]
- Tolerance of mutants relative to wild-type [1]: increased tolerance

Compound: O=C(O)c1ccccc1Cl [2CB, 2-chlorobenzoate]
- Tolerance of mutants relative to wild-type [1]: modest increment of tolerance
- Tolerance (MIC) [2]: 1.7 ± 0.2%
- Tolerance (MIC) [3]: 2.0 ± 0.2%
- Tolerance (MIC) [4]: 1.9 ± 0.2%
- Tolerance (MIC) [5]: 1.9 ± 0.3%
- Tolerance (MIC) [6]: 2.1 ± 0.2%
- Tolerance (MIC) [7]: 1.9 ± 0.2%
- Tolerance (MIC) [8]: 1.5 ± 0.2%

Compound: O=C(O)c1ccccc1O [2HBA, 2-hydroxybenzoate]
- Tolerance of mutants relative to wild-type [1]: slight or no increase of tolerance
- Tolerance (MIC) [2]: 0.8 ± 0.1%
- Tolerance (MIC) [3]: 0.8 ± 0.1%
- Tolerance (MIC) [4]: 0.9 ± 0.1%
- Tolerance (MIC) [5]: 0.8 ± 0.1%
- Tolerance (MIC) [6]: 0.7 ± 0.1%
- Tolerance (MIC) [7]: 0.8 ± 0.1%
- Tolerance (MIC) [8]: 0.8 ± 0.1%

Compound: O=C(O)c1ccc(O)c(Br)c1 [3-bromo-4-hydroxybenzoate]
- Tolerance of mutants relative to wild-type [1]: increased tolerance

Compound: O=C(O)c1cccc(I)c1 [3-iodobenzoate]
- Tolerance of mutants relative to wild-type [1]: increased tolerance

Compound: O=C(O)c1cccc(Cl)c1 [3CB, 3-chlorobenzoate]
- Tolerance of mutants relative to wild-type [1]: slight or no increase of tolerance
- Tolerance (MIC) [2]: 1.0 ± 0.2%
- Tolerance (MIC) [3]: 1.3 ± 0.2%
- Tolerance (MIC) [4]: 1.1 ± 0.2%
- Tolerance (MIC) [5]: 1.1 ± 0.2%
- Tolerance (MIC) [6]: 1.2 ± 0.1%
- Tolerance (MIC) [7]: 1.1 ± 0.2%
- Tolerance (MIC) [8]: 0.9 ± 0.1%

Compound: O=C(O)c1cccc(O)c1 [3HBA, 3-hydroxybenzoate]
- Tolerance of mutants relative to wild-type [1]: modest increment of tolerance
- Tolerance (MIC) [2]: 1.8 ± 0.1%
- Tolerance (MIC) [3]: 1.9 ± 0.2%
- Tolerance (MIC) [4]: 1.8 ± 0.2%
- Tolerance (MIC) [5]: 1.9 ± 0.2%
- Tolerance (MIC) [6]: 1.8 ± 0.3%
- Tolerance (MIC) [7]: 1.9 ± 0.1%
- Tolerance (MIC) [8]: 1.4 ± 0.1%

Compound: O=C(O)c1ccc(Cl)cc1O [4-chlorosalicylate]
- Tolerance of mutants relative to wild-type [1]: increased tolerance

Compound: O=C(O)c1ccc(F)cc1 [4-fluorobenzoate]
- Tolerance of mutants relative to wild-type [1]: increased tolerance

Compound: O=C(O)c1cc(Cl)ccc1O [5-chlorosalicylate]
- Tolerance of mutants relative to wild-type [1]: increased tolerance

Compound: O=C(O)c1ccccc1 [BA, benzoic acid]
- Tolerance of mutants relative to wild-type [1]: slight or no increase of tolerance
- Tolerance (MIC) [2]: 0.9 ± 0.1%
- Tolerance (MIC) [3]: 1.0 ± 0.1%
- Tolerance (MIC) [4]: 1.0 ± 0.1%
- Tolerance (MIC) [5]: 1.0 ± 0.1%
- Tolerance (MIC) [6]: 1.1 ± 0.1%
- Tolerance (MIC) [7]: 1.1 ± 0.1%
- Tolerance (MIC) [8]: 0.8 ± 0.2%

Compound: CC(C)C(=O)O [isobutyrate]
- Tolerance of mutants relative to wild-type [1]: increased tolerance

Compound: CC(C)CC(=O)O [isovalerate]
- Tolerance of mutants relative to wild-type [1]: increased tolerance

Compound: Cc1cccc(C)c1 [m-xylene]
- growth [9, 11]: inhibited almost completely
- growth [10, 11]: grew

Compound: Cc1ccccc1 [toluene]
- growth [9, 12]: somewhat retarded
- growth [10, 12]: grew normally

Compound: isonicotinate
- Tolerance of mutants relative to wild-type [1]: increased tolerance

Compound: norvalerate
- Tolerance of mutants relative to wild-type [1]: increased tolerance
